Results taken from article PMC6290777, “Inhalation of the prodrug PI3K inhibitor CL27c improves lung function in asthma and fibrosis” (Nature Communications, 2018).

Tests used:
[1] = In vitro plasma stability; assay type: in vitro ADME, mouse
Description: (§1) To define whether this prodrug was suitable for inhaled administration, CL27c was studied to evaluate selected ADME (absorption, distribution, metabolism, and excretion) and pharmacokinetic properties. First, stability of CL27c and CL27e was analyzed in mouse plasma (Supplementary Table 1) and in mouse, rat, and human liver microsomes in the presence of nicotinamide adenine dinucleotide phosphate (NADPH; Supplementary Table 2). Next, clearance of CL27c was analyzed in C57BL/6J mice after either intra-venous or oral administration. […] Clearance of CL27c and CL27e after oral administration could not be determined due to their low bioavailability (Supplementary Table 3). Next, pharmacokinetics after inhalation was studied in C57BL/6J mice after delivering an aerosolized micro-suspension of CL27c. As shown in Table 1 and Supplementary Fig. 1b, CL27c dose-dependently reached the lungs and its metabolite CL27e was detectable after inhalation of the highest dose. […] Therefore, the inhaled prodrug promotes local effects but prevents systemic absorption of pharmacologically relevant amounts of the active compound.
Supplementary Table 1. In vitro plasma half-life (t1/2), (mouse plasma).
Values are the mean of at least triplicate determination in a single experiment.

[2] = Pharmacokinetics of a single dose of CL27c (i.v. or p.o.); assay type: in vivo, C57BL/6J mice; details: for Cmax: plasma; for Cmax / AUClast / AUCtot / CL (apparent total body clearance) / F (bioavailability) / Tmax / Vss / Vz / t½ (elimination half-life): label = analyte
Description: as §1
Supplementary Table 3. Pharmacokinetic parameters of a single dose of CL27c […]
I.V. (10 mg/kg) P.O. (50 mg/kg) […]
Legend:I.V,. Intravenous administration; P.O., […]; Cmax, Maximum (peak) plasma drug concentration; AUClast Area under the plasma concentration-time curve from time zero to time of last measurable concentration; AUCtot Area under the plasma-concentration time curve; t½, Elimination half -life: CL, Apparent total body clearance of CL27c from plasma; Vz, Apparent volume of distribution during terminal phase; Vss, Apparent volume of distribution at steady state;F, Bioavalability.

[3] = Pharmacokinetics of aerosolized CL27c (analysis of lung delivery); assay type: in vivo, C57BL/6J mice; details: for Lung concentration / Plasma concentration: label = analyte; for detectability in plasma after inhalation: aerosolized CL27c, traces only 1 h after the highest dose
Description: as §1
Mice were subjected to a 30-min aerosolized treatment with CL27c or vehicle (0.5% tyloxapol/saline solution)-containing solutions, where tyloxapol was added to improve distribution in the lungs. Mice were anesthetized at 1, 3, and 6 h after aerosolized treatment, the trachea was exposed and a 1.7-mm-outside-diameter polyethylene catheter was inserted and they were subsequently sacrificed. A syringe with a needle (27 G) pretreated with heparin was inserted into the vena cava above the renal veins to collect blood. After the collection of blood, lungs were subjected to bronchoalveolar lavage with three different 500 µl aliquots of acetonitrile. At the same time blood samples were centrifuged 180× g at 22 °C for 10 min, plasma supernatant was collected and treated with 1 volume of acetonitrile to precipitate proteins. Samples were then agitated on a high-speed vortex for 2 min and further mixed using a rotary shaker for 2 min. the precipitated proteins were then pelleted by centrifugation at 10,000× g for 10 min and the supernatant was transferred in a new tube. BALF and plasma extracts were subsequently subjected to Liquid chromatography-mass spectrometry.
A Nexera LC-30AD (Shimadzu, Milan, Italy) instrument equipped with a Luna C18 150 × 2.1 mm, 3 µm particle size column (Phenomenex, Milan, Italy) was used to carry out chromatography analysis. The eluents (VWR, Milan, Italy) were acetonitrile (A) and 0.1% formic acid (B) in the following gradient conditions: from 10 to 54% of solvent A in 21 min, up to 100% of A in 2 min and re-equilibration. The injection volume was 10 µL, the flow rate was […] and the column was maintained at the temperature of 40 °C. For the chromatographic separation, an octadecylsilica column was used. The employed mass analyzer was a Q-trap used in multiple reaction-monitoring (MRM) mode. With this technique, it was possible to detect and quantify simultaneously the drug and the metabolite with high selectivity and sensitivity. A QTrap-5500 (Sciex, Milan, Italy) instrument, dressed with a Turbo Ion Spray source, was utilized to analyze samples. The source parameters were: curtain gas 30 (arbitrary units, a.u.), gas1 40 (a.u.), gas2 55 (a.u.), temperature 500 °C, ion spray voltage 5500 V, declustering potential 200 (a.u), and entrance potential 11 (a.u.). The detector was used in MRM mode and the transitions for each compound were: 446 > 418 m/z and 446 > 401 m/z for CL27C (collision energy 29, collision exit potential 26 and 28, respectively); 432 > 387 m/z and 432 > 404 m/z for CL27e (collision energy 30 and 28, collision exit potential 26 and 27, respectively).

class I PI3K = details: purified proteins; cited from earlier work
[4] = aerosolized 2 mg/ml CL27c, 1 h from exposure
[5] = aerosolized 2 mg/ml CL27c, 3 h from exposure
[6] = aerosolized 2 mg/ml CL27c, 6 h from exposure

Compound | Concentration in mouse plasma ([1]; time point 0 min) | Concentration in mouse plasma ([1]; time point 30 min) | Cmax ([2]; CL27c I.V. 10 mg/kg) | AUClast ([2]; CL27c I.V. 10 mg/kg) | AUCtot ([2]; CL27c I.V. 10 mg/kg) | CL (apparent total body clearance) ([2]; CL27c I.V. 10 mg/kg) | F (bioavailability) ([2]; CL27c I.V. 10 mg/kg) | Tmax ([2]; CL27c I.V. 10 mg/kg) | Vss ([2]; CL27c I.V. 10 mg/kg) | Vz ([2]; CL27c I.V. 10 mg/kg) | t½ (elimination half-life) ([2]; CL27c I.V. 10 mg/kg) | Cmax ([2]; CL27c P.O. 50 mg/kg) | AUClast ([2]; CL27c P.O. 50 mg/kg) | AUCtot ([2]; CL27c P.O. 50 mg/kg) | F (bioavailability) ([2]; CL27c P.O. 50 mg/kg) | Tmax ([2]; CL27c P.O. 50 mg/kg) | t½ (elimination half-life) ([2]; CL27c P.O. 50 mg/kg) | Lung concentration [3, 4] | Plasma concentration [3, 4] | Lung concentration [3, 5] | also measured
COC(=O)c1cccc(Cn2cc(-c3cccc4c(=O)cc(N5CCOCC5)[nH]c34)nn2)c1 [CL27c] | 113.2 ± 12.8 ng/mL | 6.2 ± 2.8 ng/mL | 930 ng/mL | 870 ng·h/mL | 870 ng·h/mL | 191 mL/min/kg | 100% | 4.8 min | 13.55 L/kg | 10.75 L/kg | 39 min | 220 ng/mL | 150 ng·h/mL | 390 ng·h/mL | 3.40% | 30 min | 63 min | 169.2 ± 17.7 ng/g | 1.2 ± 0.1 ng/mL | 34.2 ± 5.2 ng/g | Lung concentration ([3]; aerosolized 0.2 mg/ml CL27c, 1 h from exposure): 32.6 ± 5.1 ng/g; Lung concentration ([3]; aerosolized 0.2 mg/ml CL27c, 3 h from exposure): 10.9 ± 0.5 ng/g; Lung concentration ([3]; aerosolized 0.2 mg/ml CL27c, 6 h from exposure): 10.9 ± 1.8 ng/g; Lung concentration [3, 6]: 41.6 ± 6.5 ng/g; detectability in plasma after inhalation [3]: generally undetectable; activity in PI3K enzymatic assay (class I PI3K): inactive
O=C(O)c1cccc(Cn2cc(-c3cccc4c(=O)cc(N5CCOCC5)[nH]c34)nn2)c1 [CL27e] | 45.3 ± 14.1 ng/mL | 43.6 ± 7.4 ng/mL | 1900 ng/mL | 980 ng·h/mL | 1050 ng·h/mL | 191 mL/min/kg | 91% | 4.8 min | 13.55 L/kg | 10.75 L/kg | 75 min | 290 ng/mL | 260 ng·h/mL | 280 ng·h/mL | 4.80% | 30 min | 25.8 min | 4.5 ± 1.0 ng/g | 1.34 ± 0.62 ng/mL | 0.1 ± 0.1 ng/g | peak plasma concentration relative to CL27c ([2]; 5 min after i.v. administration of CL27c): twice more abundant than CL27c; Plasma concentration [3, 5]: <1 ng/mL; Lung concentration [3, 6]: 0.5 ± 0.2 ng/g; Plasma concentration [3, 6]: <1 ng/mL; detectability in plasma after inhalation [3]: generally undetectable; activity in PI3K enzymatic assay (class I PI3K): potent pan-class I PI3K inhibitor, acting at nanomolar concentration
